# Measurements published in paper PMC3904085 (Frontiers in Neuroscience, 2014).
# “Also recorded” adds a separate entry of the source. Like-named read-outs stand apart in the source and are kept apart here.
# How the values were obtained:
# Sprague–Dawley rats = assay: DRL 72-s schedule of reinforcement in rats; assay type: in vivo, rat; conditions: for Lever Presses Mean / Reinforcers Mean: HSD rats DRL-72-s, raw data
# Source text: Each chamber was enclosed in a melamine sound-attenuating cubicle. A white noise generator provided masking noise. The interior of each chamber consisted of three levers mounted on one wall with a house light mounted on the opposite wall. The house light was turned on at initiation of each test session and was turned off at the termination of each session. A water access port was situated next to the lever in the middle of the wall, wherein a reinforced response caused a clicker apparatus to sound paired with a dipper (0.02-ml cup) to be lifted from a water trough to an opening in the floor of the access port for 4 s.
# Rats were initially trained under an alternative fixed ratio 1 water reinforcement schedule with a fixed 1-min time schedule for automatic reinforcement. Thus, each response was reinforced, with water also provided every minute in the absence of a response. […] Following acquisition of lever-pressing behavior, rats were trained daily on DRL 18-s sessions for ~2 weeks, following which they were advanced to DRL 72-s sessions. Responding on these sessions became stable after ~8 weeks. Experimental test sessions lasted for 1 h and were conducted 5 days/week during light hours.
# (§1) Drugs were administered to the animals once or twice weekly with at least 1 week between subsequent drugs to minimize possible carryover effects. Drug treatments were administered on Tuesdays and Fridays. No treatments were administered on other test days. Wednesdays were control days. “Control” behavior was calculated as the pooled mean lever presses or reinforcers received during Wednesday sessions across all Wednesdays for the duration of each study. Performance was normalized to percent of control by dividing total responses (or reinforcers) for each drug or vehicle treatment by the mean number of responses (reinforcers) in the respective pooled control condition, multiplied by 100.
# (§2) The data analyses were conducted on the raw response and reinforcement data. All behavioral data are expressed as the mean ± s.e.m. normalized to the control condition.
# [1] = test system: mice lacking OX1 receptors; assay: DRL 36-s schedule of reinforcement in OX1 KO mice; assay type: in vivo, mouse; conditions: for Lever Presses Mean / Reinforcers Mean: OX1 KO mice DRL-36-s, raw data
# Source text: (§3) Rats were acclimated to housing conditions for 4 days, followed by sham dosing once daily for 3 days, prior to the experiment. For DRL experiments, male Sprague–Dawley rats weighing between 300 and 350 g at the beginning of the behavioral experiments (Holtzman, Madison, WI) were housed in pairs. For mouse DRL studies, male C57Bl/6 mice (Taconic Farms, Hudson, NY) or mice lacking either OX1 or OX2 receptors, around 8 weeks of age, were obtained from private breeding colonies at Taconic Farms (Hudson, NY). OX1 and OX2 receptor knockout mice were generated using in vitro fertilization of embryos in C57Bl/6 female mice with sperm harvested from male mice obtained from the University of Texas Southwestern Medical Center (Dallas, TX), and backcrossed for at least 10 generations. Mice and rats were housed in separate colony rooms, which were maintained at 22°C and 60% relative humidity. For rat DRL experiments, water was available for a 20-min period following the daily behavioral session. Based on recommendations from the animal care and use committee, the mouse DRL assay was developed using food deprivation rather than water deprivation. […] All experiments were conducted during the light cycle and in compliance with the Guide for the Care and Use of Laboratory Animals under protocols approved by a local animal care and use committee.
# (§4) The levers in these chambers were mounted on one wall with an adjacent food magazine next to the lever in the middle of the wall. A reinforced response caused a clicker apparatus to activate and the pellet feeder to deposit one 45-mg sucrose pellet (BioServ, Frenchtown, NJ) into the food magazine. The house light, which was mounted on the ceiling, was turned on when the session began, remained on throughout the entire session, and was turned off at the end of the session. Each experimental chamber was enclosed in a melamine sound-attenuating cubicle and equipped with a white noise generator to provide masking noise.
# (§5) Each mouse was initially trained under a variable time 60-s operant schedule for 5 days, followed by fixed ratio-1 ratio schedule for 5 days. After the mice had acquired lever-pressing behavior, they were trained during daily DRL 6-s sessions for ~1 week, then mice progressed through weekly ascending DRL requirements (12, 18, 24, 30 s) before moving to DRL 36-s sessions. […] Experimental sessions lasted for 45 min and were conducted 5 days/week during light hours.
# as §1, §2
# C57Bl/6 mice = assay: DRL 36-s schedule of reinforcement in wild-type mice; assay type: in vivo, mouse; conditions: for Lever Presses Mean / Reinforcers Mean: WT mice DRL-36-s, raw data
# Source text: as §4, §5, §1, §2
# [2] = test system: c-Fos protein in rat medial prefrontal cortex; assay: Restraint-stress-induced c-Fos activation (ELISA); conditions: 30 mg/kg
# Procedure: Thirty min later, rats were restrained in a rigid plastic flat-bottom restraint tube (Braintree Scientific, Inc.; Braintree, MA, USA) for 20 min. After the 20 min stress period, rats were moved to a new cage and housed individually. Rats were sacrificed 2 h after stress onset. […] Immediately after sacrifice, brains were removed, the medial prefrontal cortex (mPFC), a brain area implicated in the pathophysiology of depression, was dissected from both hemispheres and frozen in 1.5 ml centrifuge tubes in dry ice, and stored at −80°C for later analysis.
# Frozen mPFC tissues were removed from the −80°C freezer and placed on ice. Tissue was homogenized with a dounce homogenizer. The nuclear extract was prepared from the homogenized samples as per manufacturer's instructions using a CHEMICON ®Nuclear Extraction Kit (Millipore; Billerica, MA, USA). Protein concentrations were determined in the nuclear extracts using the Pierce BCA Protein Assay kit (Pierce Biotechnology, Inc., Rockford, IL, USA). Nuclear fractions were then assayed for Fos protein levels using the Pierce c-Fos Transcription Factor Kit (Pierce Biotechnology, Inc., Rockford, IL, USA), according to the manufacturer's instructions. […] Data were analyzed and plotted using GraphPad Prism (GraphPad Software, Inc.; La Jolla, CA, USA).
# [3] = Rat exposure (plasma and brain pharmacokinetics); assay type: in vivo, Sprague–Dawley rats; conditions: for concentration at 2 h / Cmax / Tmax / AUC(0-t): male, Sprague-Dawley; for AUC(0-t): read-out: AUC0–6 h
# Procedure: Two cohorts of rats were used in each study, with samples taken from one cohort at 0.5, 1, and 2 h post-dose, and samples taken from the second cohort at 1.5, 4, and 6 h post-dose. The first cohort of animals was sacrificed at 2 h post-dose, and the second at 6 h post-dose to allow for collection of brain samples.
# [4] = design: method as in earlier work; conditions: ref Fitch et al., unpublished results; Anderson et al., under review; cited from earlier work
# [5] = test system: mice lacking OX2 receptors; assay: DRL 36-s schedule of reinforcement in OX2 KO mice; assay type: in vivo, mouse; conditions: for Lever Presses Mean / Reinforcers Mean: OX2 KO mice DRL-36-s, raw data
# Source text: as §3, §4, §5, §1, §2
# [6] = Plasma and brain binding by equilibrium dialysis (unbound fraction); assay type: in vitro ADME; conditions: rat, equilibrium dialysis at 1 μM
# [7] = mice lacking OX1 receptors, DRL-36-s, 20 mg/kg
# [8] = 30 mg/kg PO, two hours post treatment, Ctotal × Fu
compound,measurement,setting,value
"Cl.O=S(=O)(c1ccc(F)cc1)N(Cc1ncc[nH]1)c1ccccc1-c1ccccc1 [LSN2424100, N-((1H-imidazol-2-yl)methyl)-N-([1,1′-biphenyl]-2-yl)-4-fluorobenzenesulfonamide hydrochloride]",Lever Presses Mean,Sprague–Dawley rats; dose 3 mg/kg,67.86
same,Reinforcers Mean,Sprague–Dawley rats; dose 3 mg/kg,10.71
same,Lever Presses Mean,Sprague–Dawley rats; dose 10 mg/kg,48.14
same,Reinforcers Mean,Sprague–Dawley rats; dose 10 mg/kg,12.14
same,Lever Presses Mean,Sprague–Dawley rats; dose 30 mg/kg IP,56.00
same,Reinforcers Mean,Sprague–Dawley rats; dose 30 mg/kg IP,15.43
same,Total lever presses emitted,"Sprague–Dawley rats; rats DRL-72-s, 10 mg/kg, normalized to control days",60 % of control
same,Lever presses made,"Sprague–Dawley rats; rats DRL-72-s, 30 mg/kg IP",70 % of control
same,Reinforcers received,"Sprague–Dawley rats; rats DRL-72-s, 30 mg/kg IP",170 % of control
same,Lever Presses Mean,[1]; dose 3 mg/kg,164.38
same,Reinforcers Mean,[1]; dose 3 mg/kg,23.13
same,Lever Presses Mean,[1]; dose 10 mg/kg,174.75
same,Reinforcers Mean,[1]; dose 10 mg/kg,20.00
same,Lever Presses Mean,[1]; dose 20 mg/kg,105.25
same,Reinforcers Mean,[1]; dose 20 mg/kg,31.75
same,Lever presses emitted,[1]; [7],50 % of control
same,Reinforcers received,[1]; [7],200 % of control
same,Lever presses emitted,"C57Bl/6 mice; C57Bl/6 mice DRL-36-s, 10 mg/kg IP",50 % of control
same,"Decrease in lever presses emitted, in words","C57Bl/6 mice; C57Bl/6 mice DRL-36-s, 20 mg/kg",did not reach statistical significance
same,Reinforcers received (maximum increase),"C57Bl/6 mice; C57Bl/6 mice DRL-36-s, doses 3–20 mg/kg IP, did not reach statistical significance",up to 225 % of control
same,Lever Presses Mean,C57Bl/6 mice; dose 3 mg/kg,153.38
same,Reinforcers Mean,C57Bl/6 mice; dose 3 mg/kg,15.00
same,Lever Presses Mean,C57Bl/6 mice; dose 10 mg/kg,83.88
same,Reinforcers Mean,C57Bl/6 mice; dose 10 mg/kg,18.75
same,Lever Presses Mean,C57Bl/6 mice; dose 20 mg/kg,105.43
same,Reinforcers Mean,C57Bl/6 mice; dose 20 mg/kg,28.00
same,Effect on restraint stress-induced increase in c-fos expression in prefrontal cortex,[2]; 30 mg/kg IP 30 min before 20 min restraint,attenuated; also recorded: blocked
same,c-fos protein levels in prefrontal cortex without stress (home cage) vs vehicle,"[2]; 30 mg/kg IP, no restraint stress",no effect
same,Cu (unbound concentration) brain,[3]; [8],0.67 nM
same,Cu (unbound concentration) plasma,[3]; [8],3.52 nM
same,concentration at 2 h,"[3]; brain, 30 mg/kg IP, two hours post treatment, read-out: Brain concentration",77.2 ng/g
same,concentration at 2 h,"[3]; brain, 30 mg/kg PO, two hours post treatment, read-out: Brain concentration",33.5 ng/g
same,Cmax,"[3]; plasma, 30 mg/kg IP",1170 ng/mL
same,Tmax,"[3]; plasma, 30 mg/kg IP",30 min
same,AUC(0-t),"[3]; plasma, 30 mg/kg IP",1300 ng·h/mL
same,concentration at 2 h,"[3]; plasma, 30 mg/kg IP, two hours post treatment, read-out: Plasma concentration",149 ng/mL
same,Cmax,"[3]; plasma, 30 mg/kg PO",196 ng/mL
same,Tmax,"[3]; plasma, 30 mg/kg PO",30 min
same,AUC(0-t),"[3]; plasma, 30 mg/kg PO",269 ng·h/mL
same,concentration at 2 h,"[3]; plasma, 30 mg/kg PO, two hours post treatment, read-out: Plasma concentration",45.8 ng/mL
same,Direct effects on food or water intake,[4],no direct effects
same,Lever Presses Mean,[5]; dose 10 mg/kg,171.75
same,Reinforcers Mean,[5]; dose 10 mg/kg,18.88
same,Lever Presses Mean,[5]; dose 20 mg/kg,160.00
same,Reinforcers Mean,[5]; dose 20 mg/kg,23.38
same,Lever Presses Mean,[5]; dose 40 mg/kg,158.25
same,Reinforcers Mean,[5]; dose 40 mg/kg,26.25
same,"Change in reinforcers received or lever presses emitted, in words","[5]; mice lacking OX2 receptors, doses up to 40 mg/kg",no significant change
same,fraction unbound at 1 μM,"[6]; brain, read-out: Fu (fraction unbound) brain",0.0089
same,fraction unbound at 1 μM,"[6]; plasma, read-out: Fu (fraction unbound) plasma",0.0341
